For data set [1], the target named is T1, (H^+ +K^+)-ATPase (Sus scrofa, UniProt P19156).
T1 construct: prepared from the fundus ventriculi of fresh hog stomachs; from tissue; host or cells: fundus ventriculi of fresh hog stomachs, prepared by the method of Saccomani et al. (J. Biol. Chem. 251, 7690, 1976)
In words: (H^+ +K^+)-ATPase inhibiting activity. The data set is classed as biochemical. The following applies: enzyme from hog fundus ventriculi; incubation with compound 35° to 37° C., 5 to 30 minutes. The protocol:
The (H^+ +K^+)-ATPase inhibiting activity of the present compounds [I] was determined in the following manner: […] The (H^+ +K^+)-ATPase used in the above test was prepared from the fundus ventriculi of fresh hog stomachs in accordance with the method of Saccomani et al. [The Journal of Biological Chemistry, Vol. 251, No. 23, p. 7690 (1976)]. […] The colorimetric measurement was effected at a wavelength range of from 360 to 400 nm. As a control experiment, the residual activity of (H^+ +K^+)-ATPase was determined in the same manner as above without addition of any test compounds. […] To be more specific, the difference between the colorimetric reading obtained in the control experiment and the colorimetric reading obtained with a test compound is calculated at various molar concentrations, and the difference is divided by the reading of the control experiment to give a rate of inhibition. With inhibition rates thus obtained, a density-inhibition rate curve is plotted, and the IC50 value is determined based on the curve. In the table is also shown, for the purpose of comparison, the (H^+ +K^+)-ATPase inhibiting activity of omeprazole determined in the same manner as above.

Data set [2] concerns gastric acid secretion. In words: Gastric antisecretory effect (pylorus ligated rats). Type of data set: in vivo. The following applies: Rattus norvegicus; po; male Wistar rats; pylorus ligated 1 hour after administration, total acid after 4 hours; read-out: Gastric Antisecretory Effect, ED50 (inhibition of total gastric acid by 50%). The method, then: Exactly 1 hour after the completion of the administration, the pyloric regions of their stomachs were ligated. After 4 hours, the total acid contained in the gastric juice of each rat was determined. […] To collect the gastric juice, the rats were killed, and their stomachs were cut open. The total acid in the gastric juice was determined by titrating the juice with aqueous 0.1N sodium hydroxide solution until its pH reached 7.0. As a control experiment, the total acid contained in the gastric juice of rats not administered with the compounds was also determined in the same manner as above. […] In order to determine the ED50 value, the difference in total acid between a group of rats administered with a test compound and a group of rats not administered with any of the test compounds was calculated, and the difference was then divided by the total acid of the latter rats, so as to obtain a rate of inhibition. With inhibition rates thus obtained, a dosage-effect curve was plotted, and the ED50 value was determined on the basis of the curve. In the table is also shown, for the purpose of comparison, the ED50 value of omeprazole determined in the same manner as above.

A short description of data set [3]: Stability during storage (60° C., 75% R.H., 6 days), residual rate by thin layer densitometry. Type of data set: physicochemical. The following applies: storage at 75% r.h. The protocol: In the thin layer densitometry, spots each containing 100 μg of a test sample were applied onto thin layer plates. The spots were developed with a mixture of chloroform and ethanol (10:1, by volume). As the thin layer plates, TLC Plate Silica Gel 60 F254 (10×20 cm, 0.25 mm in thickness, a product of Merck & Co., Inc.) was used. The distance of development was 15 cm. The densitometry was effected by use of a Shimadzu Dichroic Chromatoscanner CS-910 (manufactured by Shimadzu Corporation) at a wavelength of 280 or 300 nm.

A short description of data set [4]: Acute toxicity (LD50). The following applies: rat, in vivo, 5 weeks old male Wistar rats. The method, then: Using 5 weeks old male Wistar rats, acute toxicity (LD50) of two representative compounds (compounds obtained in Examples 1 and 8) of the present compounds [I] was tested.
For data set [5] the following is noted: stored without any special precautions; background statement; cited from earlier work.
Setting [6] is: ip, administered intraperitoneally.

Usually pIC50 stands for −log10 of the IC50, conventionally taken in molar units. What is called ED50 is the dose that gives a 50% effect, or the effect in half of the subjects. For orientation: amount remaining means the share of the starting amount still present when the sample was taken. Read a low amount remaining as a greater loss. One may read the LD50 as the dose expected to kill half of the subjects tested. Low values mean greater toxicity, high ones lower toxicity.

pIC50: −log10 of the molar value.

T1 sequence (P19156 2-1034 limits assumed): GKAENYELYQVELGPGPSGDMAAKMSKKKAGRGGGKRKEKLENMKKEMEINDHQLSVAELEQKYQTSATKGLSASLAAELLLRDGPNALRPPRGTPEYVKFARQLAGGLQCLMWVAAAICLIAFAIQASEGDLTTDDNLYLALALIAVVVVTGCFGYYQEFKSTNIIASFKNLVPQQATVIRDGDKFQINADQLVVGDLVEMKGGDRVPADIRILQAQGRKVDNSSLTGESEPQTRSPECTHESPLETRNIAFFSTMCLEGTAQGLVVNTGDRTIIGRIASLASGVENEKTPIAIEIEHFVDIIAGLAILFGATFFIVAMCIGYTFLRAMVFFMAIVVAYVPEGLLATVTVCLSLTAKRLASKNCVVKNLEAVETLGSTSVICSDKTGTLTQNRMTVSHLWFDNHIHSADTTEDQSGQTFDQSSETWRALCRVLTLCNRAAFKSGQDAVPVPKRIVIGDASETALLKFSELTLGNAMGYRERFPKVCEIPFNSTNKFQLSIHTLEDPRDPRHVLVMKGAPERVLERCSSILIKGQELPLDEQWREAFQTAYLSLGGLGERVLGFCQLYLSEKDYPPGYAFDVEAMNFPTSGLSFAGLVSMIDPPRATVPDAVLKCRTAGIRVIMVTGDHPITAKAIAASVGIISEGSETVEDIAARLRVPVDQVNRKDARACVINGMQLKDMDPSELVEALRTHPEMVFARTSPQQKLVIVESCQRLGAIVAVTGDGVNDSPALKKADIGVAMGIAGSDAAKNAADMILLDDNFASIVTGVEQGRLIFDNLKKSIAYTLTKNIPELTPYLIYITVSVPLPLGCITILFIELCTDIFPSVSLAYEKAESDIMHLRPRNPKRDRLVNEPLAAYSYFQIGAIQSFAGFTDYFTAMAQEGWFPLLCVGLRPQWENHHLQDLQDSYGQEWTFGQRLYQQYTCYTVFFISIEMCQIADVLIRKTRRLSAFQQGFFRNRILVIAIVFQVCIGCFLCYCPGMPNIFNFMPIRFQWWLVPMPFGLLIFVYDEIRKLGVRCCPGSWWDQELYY
T1 sequence (P18434 whole entry partner): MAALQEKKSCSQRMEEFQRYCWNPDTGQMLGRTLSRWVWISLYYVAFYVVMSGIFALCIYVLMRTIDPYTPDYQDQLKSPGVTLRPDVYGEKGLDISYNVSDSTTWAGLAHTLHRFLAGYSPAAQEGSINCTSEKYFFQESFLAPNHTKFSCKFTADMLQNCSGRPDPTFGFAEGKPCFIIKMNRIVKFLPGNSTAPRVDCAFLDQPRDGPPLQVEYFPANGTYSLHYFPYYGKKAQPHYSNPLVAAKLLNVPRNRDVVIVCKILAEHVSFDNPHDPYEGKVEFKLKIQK

Take `Cc1cnc(C[S+]([O-])c2nc3cc(OCC4CC4)ccc3[nH]2)c(C)c1` (stereo not drawn) [Example 1, 2-[2-(3,5-dimethyl)pyridylmethylsulfinyl]-5-cyclopropylmethyloxybenzimidazole]: the pIC50 in data set [1] is 2.74. Further, the ED50 in data set [2] turned out to be 17.8 mg/kg. In data set [3], this molecule returned an amount remaining at 144 h of 91%. In addition, the LD50 in data set [4] (setting [6]) was at least 500 mg/kg; in data set [4] (po, administered orally), at least 4000 mg/kg.

As for `Cc1ccnc(C[S+]([O-])c2nc3cc(OCC4CC4)ccc3[nH]2)c1` (stereo not drawn) [Example 2, 2-[2-(4-methyl)pyridylmethylsulfinyl]-5-cyclopropylmethyloxybenzimidazole], the pIC50 in data set [1] is 2.68. The molecule also yielded a share remaining at 144 h in data set [3] of 59%.

Turning to `Cc1cnc(C[S+]([O-])c2nc3c(OCC4CC4)cccc3[nH]2)c(C)c1` (stereo not drawn) [Example 3, 2-[2-(3,5-dimethyl)pyridylmethylsulfinyl]-4-cyclopropylmethyloxybenzimidazole], the pIC50 in data set [1] is 3.05. Further, in data set [2], the ED50 amounted to 19.5 mg/kg. Further, in data set [3], the fraction remaining at 144 h was found to be 88%.

Turning to `Cc1cnc(C[S+]([O-])c2nc3cc(OCC4CC4)ccc3[nH]2)c(C)c1C` (stereo not drawn) [Example 4, 2-[2-(3,4,5-trimethyl)pyridylmethylsulfinyl]-5-cyclopropylmethyloxybenzimidazole], the negative logarithm of the IC50 (pIC50) in data set [1] was 3.00. The ED50 in data set [2] was determined as 22.1 mg/kg. Also, in data set [3], the amount remaining at 144 h is 94%.

As for `Cc1cnc(C[S+]([O-])c2nc3c(OCC4CC4)cccc3[nH]2)c(C)c1C` (stereo not drawn) [Example 5, 2-[2-(3,4,5-trimethyl)pyridylmethylsulfinyl]-4-cyclopropylmethyloxybenzimidazole], the pIC50 in data set [1] was 2.72. In data set [3], this molecule displayed a fraction remaining at 144 h of 86%.

Consider `COc1c(C)cnc(C[S+]([O-])c2nc3c(OCC4CC4)cccc3[nH]2)c1C` (stereo not drawn) [Example 6, 2-[2-(4-methoxy-3,5-dimethyl)pyridylmethylsulfinyl]-4-cyclopropylmethyloxybenzimidazole], for which the negative-log IC50 (pIC50) in data set [1] is 2.72. In data set [3], this molecule came in with an amount remaining at 144 h of 67%.

`COc1c(C)cnc(C[S+]([O-])c2nc3cc(OCC4CC4)ccc3[nH]2)c1C` (stereo not drawn) [Example 7, 2-[2-(4-methoxy-3,5-dimethyl)pyridylmethylsulfinyl]-5-cyclopropylmethyloxybenzimidazole]: the pIC50 in data set [1] is 2.77. Moreover, the amount remaining at 144 h in data set [3] came out at 37%.

Regarding `COc1cc(C[S+]([O-])c2nc3cc(OCC4CC4)ccc3[nH]2)ncc1C` (stereo not drawn) [Example 8, 2-[2-(4-methoxy-5-methyl)pyridylmethylsulfinyl]-5-cyclopropylmethyloxybenzimidazole], the pIC50 in data set [1] was 3.52. The ED50 in data set [2] was determined as 25.9 mg/kg. The same molecule showed a fraction remaining at 144 h in data set [3] of 32%. Further, the 50% lethal dose (LD50) in data set [4] (setting [6]) was at least 500 mg/kg; in data set [4] (po, administered orally), at least 4000 mg/kg.

With `COc1cc(C[S+]([O-])c2nc3c(OCC4CC4)cccc3[nH]2)ncc1C` (stereo not drawn) [Example 9, 2-[2-(4-methoxy-5-methyl)pyridylmethylsulfinyl]-4-cyclopropylmethyloxybenzimidazole], the pIC50 in data set [1] is 3.37. Besides, the share remaining at 144 h in data set [3] amounted to 76%.

In the case of `COc1ccc2[nH]c([S+]([O-])Cc3ncc(C)c(OC)c3C)nc2c1` (stereo not drawn) [Omeprazole, 5-methoxy-2-[2-(4-methoxy-3,5-dimethyl)-pyridylmethylsulfinyl]benzimidazole, reference compound], the pIC50 in data set [1] was 2.74. In data set [2], the ED50 is 30.5 mg/kg. Besides, the “stability of omeprazole when stored (in words)” value in data set [5] is reported as “degraded at an unexpectedly high rate”. In data set [3], this molecule registered a fraction remaining at 144 h of 5%.

The record behind these values is patent publication US4753955A, “Benzimidazole derivatives” (Tokyo Tanabe Company, Ltd., priority 1986, dated 1988).
